These results are taken from patent US20160318987A1 (MEDIMMUNE LIMITED, priority 2013, published 2016).

Like-named read-outs stand apart in the source and are kept apart here. *1 amine or outer side, *2 acyl side, *3 side chain or, on linkers, in order; H or OH if unused. Where a SMILES comes first, the peptide text is derived from it. Primed or numbered codes have the meaning given here. Where no end group is shown, it is not given here. Side-chain parts run from the residue outwards. [ ]: non-standard residue; d: D form. The star is where a group is joined. ξ: configuration not given here. Palmitoyl(16-(5-tetrazolyl)) = O=C(CCCCCCCCCCCCCCCc1nnn[nH]1)*; X1 = CC(C)(c1ccccc1)[C@H](N[*:1])C(=O)[*:2]; γGlu = O=C(O)[C@H](CCC(=O)[*:2])N[*:1]; Palmitoyl = CCCCCCCCCCCCCCCC(=O)*; αMeF = C[C@](N)(Cc1ccccc1)C(=O)O; ξαMeF = CC(N)(Cc1ccccc1)C(=O)O; αMeK = C[C@](N)(CCCCN)C(=O)O; ξαMeK = CC(N)(CCCCN)C(=O)O; PEG2′ = not defined here; Aib = CC(C)(N)C(=O)O

Data set [1] has as its system DPP-IV, Neprilysin, Chymotrypsin, Trypsin, Pepsin. Nature of the data set: enzyme resistance, protease panel (Table 2 description). The data set is classed as in vitro ADME. The procedure:
Peptides for evaluation were prepared to a concentration of 1.0 mg/mL solutions in either pure water, sterile saline for injection (0.9% w/v NaCl/water) or 1× PBS (Dulbecco). 100 μL (100 μg/mL peptide) of these solutions was added to 900 μL of each protease solution. Additional experiments were performed examining protein degradation during exposure to serum and gastric fluid. For serum studies, peptides were incubated with 50% female Sprague-Dawley strain rat serum (SD rat serum). For gastric fluid studies, peptides were incubated 1:1 (volume:volume), fresh rat gastric fluid.
The peptide and enzyme (or serum or gastric fluid) were co-incubated in a temperature regulated water bath at 37° C. for the duration of the experiment. During each experiment 100 μL aliquots (10 μg peptide) of the incubated peptide-enzyme mixture were withdrawn periodically, quenched by addition of an equal volume of 5% TFA (v/v) in 1:1 water/acetonitrile to arrest proteolytic activity, and analyzed by liquid chromatography-mass spectrometry (LC/MS): Agilent Polaris C8-A column (4.6×100 mm, 3 micron) using a linear binary gradient of 10-90% MeCN (0.1% TFA v/v) in water (0.1% TFA v/v) over 30 minutes at 1.5 mL min^−1 at ambient temperature. Analytes were detected by both UV absorption at 210 nm and ionization using a Waters 3100 mass detector (ESI^+ mode). New peptidic species (fragments) derived from enzymatic cleavage of peptides were analyzed post-process, and their molecular masses were used to identify the precise cleavage position (highlighting the scissile bond in each case).

The target in a further data set is T1, hGIP-R (Homo sapiens, UniProt P48546).
T1 construct: expressed in transfected cells
T1 sequence (P48546 22-466): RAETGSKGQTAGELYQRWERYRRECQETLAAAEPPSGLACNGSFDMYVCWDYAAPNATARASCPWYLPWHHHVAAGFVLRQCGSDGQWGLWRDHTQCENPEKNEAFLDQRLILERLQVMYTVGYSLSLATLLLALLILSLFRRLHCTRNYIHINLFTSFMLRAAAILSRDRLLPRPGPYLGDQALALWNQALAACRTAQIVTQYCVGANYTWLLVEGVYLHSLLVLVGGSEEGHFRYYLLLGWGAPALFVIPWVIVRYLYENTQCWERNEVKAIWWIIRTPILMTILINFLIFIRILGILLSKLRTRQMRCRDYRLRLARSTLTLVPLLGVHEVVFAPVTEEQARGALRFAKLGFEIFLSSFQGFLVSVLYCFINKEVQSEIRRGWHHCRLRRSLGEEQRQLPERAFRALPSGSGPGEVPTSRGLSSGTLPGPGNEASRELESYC
Nature of the data set: cAMP functional assay, cells expressing human GIP receptor (primary assay). The conditions noted are these: n = 2. Type of data set: cell-based.

Another data set deals with T2, hGluc-R (Homo sapiens, UniProt P47871).
T2 construct: expressed in transfected cells
T2 sequence (P47871 26-477): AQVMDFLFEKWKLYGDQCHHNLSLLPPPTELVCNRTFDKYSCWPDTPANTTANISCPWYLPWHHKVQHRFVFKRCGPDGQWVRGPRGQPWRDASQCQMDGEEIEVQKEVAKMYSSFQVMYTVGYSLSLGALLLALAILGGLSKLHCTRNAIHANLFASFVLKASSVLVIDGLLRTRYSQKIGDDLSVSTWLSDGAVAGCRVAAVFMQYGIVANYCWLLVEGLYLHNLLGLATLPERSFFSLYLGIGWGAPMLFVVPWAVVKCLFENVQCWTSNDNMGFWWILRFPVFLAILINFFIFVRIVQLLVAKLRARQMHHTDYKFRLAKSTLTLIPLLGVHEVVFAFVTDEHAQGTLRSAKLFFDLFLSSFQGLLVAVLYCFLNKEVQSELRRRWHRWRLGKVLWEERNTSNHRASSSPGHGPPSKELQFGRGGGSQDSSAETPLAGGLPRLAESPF
Nature of the data set: cAMP functional assay, cells expressing human glucagon receptor (primary assay). The data set is classed as cell-based. The conditions noted are these: n = 2.

In a further data set the target is T3, hGLP-1R (Homo sapiens, UniProt P43220).
T3 construct: expressed in transfected cells
T3 sequence (P43220 24-463): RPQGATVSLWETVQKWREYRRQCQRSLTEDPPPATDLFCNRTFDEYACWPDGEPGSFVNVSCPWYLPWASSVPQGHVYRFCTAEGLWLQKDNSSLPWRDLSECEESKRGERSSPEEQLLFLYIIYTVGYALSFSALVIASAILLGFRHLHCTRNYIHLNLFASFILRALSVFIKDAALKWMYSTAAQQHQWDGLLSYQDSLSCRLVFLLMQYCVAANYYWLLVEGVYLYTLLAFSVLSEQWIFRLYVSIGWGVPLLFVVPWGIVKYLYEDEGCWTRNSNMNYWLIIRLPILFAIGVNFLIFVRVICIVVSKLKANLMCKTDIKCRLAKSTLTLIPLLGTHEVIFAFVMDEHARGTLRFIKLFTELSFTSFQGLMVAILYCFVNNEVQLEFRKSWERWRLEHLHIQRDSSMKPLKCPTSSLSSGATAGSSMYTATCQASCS
Nature of the data set: cAMP functional assay, cells expressing human GLP-1 receptor (primary assay). Conditions: n = 2. Type of data set: cell-based.

Consider `CCCCCCCCCCCCCCCC(=O)N[C@@H](CCC(=O)NCCCC[C@H](NC(=O)CNC(=O)CNC(=O)C(C)(CCCCN)NC(=O)[C@@H](NC(=O)[C@@H](NC(=O)C(C)(Cc1ccccc1)NC(=O)[C@H](C)NC(=O)[C@@H](NC(=O)C(C)(Cc1ccccc1)NC(=O)[C@H](CCC(=O)O)NC(=O)C(C)(CCCCN)NC(=O)[C@H](C)NC(=O)[C@H](C)NC(=O)[C@H](CCC(N)=O)NC(=O)CNC(=O)[C@H](CCC(=O)O)NC(=O)[C@H](CC(C)C)NC(=O)C(C)(Cc1ccccc1)NC(=O)[C@H](CO)NC(=O)[C@H](CO)NC(=O)[C@@H](NC(=O)[C@H](CC(=O)O)NC(=O)[C@H](CO)NC(=O)[C@@H](NC(=O)C(C)(Cc1ccccc1)NC(=O)[C@H](CO)NC(=O)CNC(=O)[C@H](CCC(=O)O)NC(=O)C(C)(C)NC(=O)[C@@H](N)Cc1c[nH]cn1)[C@@H](C)O)C(C)C)[C@@H](C)CC)C(C)C)C(C)C)C(N)=O)C(=O)O` (stereo partly drawn) [SEQ ID NO: 54, H-(Aib)^2-EG-(S)^5-(α-MeF)^6-TSDV^10 SS-(α-MeF)^13-LE^15 GQAA-(α-MeK)^20 E-(α-MeF)^22-IA-(α-MeF)^25-(V)^26-V-(α-MeK)^28-G-(G)^30-K(Ε-γ-E-Palm)] (H-H[Aib]EGS[ξαMeF]TSDVSS[ξαMeF]LEGQAA[ξαMeK]E[ξαMeF]IA[ξαMeF]VV[ξαMeK]GGK([γGlu-Palmitoyl])-NH2), for which the “enzyme resistance (DPP-IV, Neprilysin, Chymotrypsin, Trypsin, Pepsin)” value (shortened to “enzyme resistance”) in data set [1] was “Excellent enzyme resistance”.

As a reminder, the EC50 is the concentration that produces a half-maximal response. For the compound `CCCCCCCCCCCCCCCC(=O)N[C@@H](CCC(=O)NCCCC[C@H](NC(=O)CNC(=O)CNC(=O)[C@](C)(CCCCN)NC(=O)[C@@H](NC(=O)[C@@H](NC(=O)[C@](C)(Cc1ccccc1)NC(=O)[C@H](C)NC(=O)[C@@H](NC(=O)[C@](C)(Cc1ccccc1)NC(=O)[C@H](CCC(=O)O)NC(=O)[C@](C)(CCCCN)NC(=O)[C@H](C)NC(=O)[C@H](C)NC(=O)[C@H](CCC(=O)O)NC(=O)CNC(=O)[C@H](CCC(=O)O)NC(=O)[C@H](CC(C)C)NC(=O)[C@](C)(Cc1ccccc1)NC(=O)[C@H](CO)NC(=O)[C@H](CO)NC(=O)[C@@H](NC(=O)[C@H](CC(=O)O)NC(=O)[C@H](CO)NC(=O)[C@@H](NC(=O)[C@](C)(Cc1ccccc1)NC(=O)[C@H](CO)NC(=O)CNC(=O)[C@H](CCC(=O)O)NC(=O)C(C)(C)NC(=O)[C@@H](N)Cc1c[nH]cn1)[C@@H](C)O)C(C)C)[C@@H](C)CC)C(C)C)C(C)C)C(N)=O)C(=O)O` [SEQ ID NO: 59, H-(Aib)^2-EG-(S)^5-(α-MeF)^6-TSDV^10 SS-(α-MeF)^13-LE^15 G-(E)^17-AA-(α-MeK)^20 E-(α-MeF)^22-IA-(α-MeF)^25-(V)^26-V-(α-MeK)^28-G-(G)^30-K(Ε-γ-E-Palm)] (H-H[Aib]EGS[αMeF]TSDVSS[αMeF]LEGEAA[αMeK]E[αMeF]IA[αMeF]VV[αMeK]GGK([γGlu-Palmitoyl])-NH2), the “enzyme resistance” value in data set [1] is reported as “Excellent enzyme resistance”. Further, the EC50 was determined as 89.8 nM on hGIP-R, 89.8 nM at hGluc-R and 0.218 nM at hGLP-1R.

Consider `CC[C@H](C)[C@H](NC(=O)[C@](C)(Cc1ccccc1)NC(=O)[C@H](CCC(=O)O)NC(=O)[C@](C)(CCCCN)NC(=O)[C@H](C)NC(=O)[C@H](C)NC(=O)[C@H](CCC(=O)O)NC(=O)CNC(=O)[C@H](CCC(=O)O)NC(=O)[C@H](CC(C)C)NC(=O)[C@](C)(Cc1ccccc1)NC(=O)[C@H](CO)NC(=O)[C@H](CO)NC(=O)[C@@H](NC(=O)[C@H](CC(=O)O)NC(=O)[C@H](CO)NC(=O)[C@@H](NC(=O)[C@](C)(Cc1ccccc1)NC(=O)[C@H](CO)NC(=O)CNC(=O)[C@H](CCC(=O)O)NC(=O)C(C)(C)NC(=O)[C@@H](N)Cc1c[nH]cn1)[C@@H](C)O)C(C)C)C(=O)N[C@@H](C)C(=O)N[C@@](C)(Cc1ccccc1)C(=O)N[C@H](C(=O)N[C@H](C(=O)N[C@@](C)(CCCCN)C(=O)NCC(=O)NCC(N)=O)C(C)C)C(C)C` [SEQ ID NO: 60, H-(Aib)^2-EG-(S)^5-(α-MeF)^6-TSDV^10 SS-(α-MeF)^13-LE^15 G-(E)^17-AA-(α-MeK)^20 E-(α-MeF)^22-IA-(α-MeF)^25-(V)^26-V-(α-MeK)^28-G-(G)^30], for which the “enzyme resistance” value in data set [1] is “Excellent enzyme resistance”. Moreover, the EC50 at hGIP-R worked out at 104 nM; on hGluc-R it was 66.3 nM; on hGLP-1R it was 0.0212 nM.

With `CC[C@H](C)[C@H](NC(=O)[C@@H](NC(=O)[C@H](CCC(=O)O)NC(=O)[C@H](CCCCN)NC(=O)[C@H](C)NC(=O)[C@H](C)NC(=O)[C@H](CCC(N)=O)NC(=O)CNC(=O)[C@H](CCC(=O)O)NC(=O)[C@H](CC(C)C)NC(=O)[C@@H](NC(=O)[C@H](CO)NC(=O)[C@H](CO)NC(=O)[C@@H](NC(=O)[C@H](CC(=O)O)NC(=O)[C@H](CO)NC(=O)[C@@H](NC(=O)[C@@H](NC(=O)[C@@H](NC(=O)CNC(=O)[C@H](CCC(=O)O)NC(=O)C(C)(C)NC(=O)[C@@H](N)Cc1c[nH]cn1)[C@@H](C)O)C(C)(C)c1ccccc1)[C@@H](C)O)C(C)C)C(C)(C)c1ccccc1)C(C)(C)c1ccccc1)C(=O)N[C@@H](C)C(=O)N[C@H](C(=O)N[C@@H](CC(C)C)C(=O)N[C@H](C(=O)N[C@@H](CCCCN)C(=O)NCC(=O)N[C@@H](CCCNC(=N)N)C(N)=O)C(C)C)C(C)(C)c1ccccc1` [SEQ ID NO: 62, H-(Aib)^2-EGT^5-(β, β-di-Me-Phe)^6-TSDV^10 SS-(β, β-di-Me-Phe)^13-LE^15 GQAAK^20 E-(β, β-di-Me-Phe)^22-IA-(β,β-di-Me-Phe)^25 LVKGR^30] (H-H[Aib]EGT[X1]TSDVSS[X1]LEGQAAKE[X1]IA[X1]LVKGR-NH2), the EC50 at hGIP-R, at hGluc-R and at hGLP-1R was 98.9 nM each time.

With “H-(Aib)^2-EG-(S)^5-(α-MeF)^6-TSDV^10 SS-(α-MeF)^13-LE^15 GQAA-(α-MeK)^20 E-(α-MeF)22^-IA-(α-MeF)^25-(V)^26-V-(α-MeK)^28-G-(G)^30-K(Ε-γ-E-Tetrazolylpalm) (H[Aib]EGS[αMeF]TSDVSS[αMeF]LEGQAA[αMeK]E[αMeF]IA[αMeF]VV[αMeK]GGK([γGlu-Palmitoyl(16-(5-tetrazolyl))])) [SEQ ID NO: 55]”, the “enzyme resistance” value in data set [1] is “Excellent enzyme resistance”.

Consider “H-(Aib)^2-EG-(S)^5-(α-MeF)^6-TSDV^10 SS-(α-MeF)^13-LE^15 GQAA-(α-MeK)^20 E-(α-MeF)^22-IA-(α-MeF)^25-(V)^26-V-(α-MeK)^28-G-(G)^30-K(Ε-Tetrazolylpalm) (H[Aib]EGS[αMeF]TSDVSS[αMeF]LEGQAA[αMeK]E[αMeF]IA[αMeF]VV[αMeK]GGK(Palmitoyl(16-(5-tetrazolyl))); not fully specified (C-terminus); printed as H-(Aib)^2-EG-(S)^5-(α-MeF)^6-TSDV^10 SS-(α-MeF)^13-LE^15 GQAA-(α-MeK)^20 E-(α-MeF)^22-IA-(α-MeF)^25-(V)^26-V-(α-MeK)^28-G-(G)^30-K(Ε-Tetrazolylpalm)) [SEQ ID NO: 53]”, for which, in data set [1], the “enzyme resistance” value was “Excellent enzyme resistance”. Further, in the data set with hGLP-1R (read-out: Primary assay EC50 (n = 2) hGLP-1R), the EC50 stood at 0.0451 nM.

As for “H-(Aib)^2-EG-(S)^5-(α-MeF)^6-TSDV^10 SS-(α-MeF)^13-LE^15 GQAA-(α-MeK)^20 E-(α-MeF)^22-IA-(α-MeF)^25-(V)^26-V-(α-MeK)^28-G-(G)^30-K(Ε-γ-E-(PEG)^2-Tetrazolylpalm) (H[Aib]EGS[αMeF]TSDVSS[αMeF]LEGQAA[αMeK]E[αMeF]IA[αMeF]VV[αMeK]GGK([γGlu-PEG2′-Palmitoyl(16-(5-tetrazolyl))]); not fully specified; printed as H-(Aib)^2-EG-(S)^5-(α-MeF)^6-TSDV^10 SS-(α-MeF)^13-LE^15 GQAA-(α-MeK)^20 E-(α-MeF)^22-IA-(α-MeF)^25-(V)^26-V-(α-MeK)^28-G-(G)^30-K(Ε-γ-E-(PEG)^2-Tetrazolylpalm)) [SEQ ID NO: 56]”, in data set [1], the “enzyme resistance” value is recorded as “Excellent enzyme resistance”.
